From paper PMC11203424, “Comparative Analysis of Orthosteric and Allosteric GLP-1R Agonists’ Effects on Insulin Secretion from Healthy, Diabetic, and Recovered INS-1E Pancreatic Beta Cells” (International Journal of Molecular Sciences, 2024)

What was measured:
GLP-1R [1] = tested on: GLP-1R; set-up: method as in PMID 27630114, doi:10.4172/2161-1459.1000138, PMID 27138453, PMID 27100083, PMID 25449603; details: cited from earlier work
Excerpt: The activation of the Gαs subunit of heterotrimeric G-protein raises intracellular cAMP levels via adenylyl cyclase (AC) activation, whereas the activation of the Gαq subunit increases intracellular calcium (iCa^2+) levels and extracellular signal-regulated kinase (ERK) phosphorylation, which promotes GLP-1R internalization. The internalization of GLP-1R is associate ...

[2] = tested on: dipeptidyl peptidase (DPP)-IV; details: cited from earlier work
Excerpt: Type 2 diabetes (T2D), which is a multifactorial metabolic disease that is largely characterized by impaired insulin secretion and action, has become a global pandemic in recent decades. Despite the availability of various treatments, T2D post-diagnosis complications such as cardiovascular disease (CVD) remain prevalent, and finding long-term stable treatment regimes for patients can be challenging. Therefore, novel therapeutic strategies, which alleviate the pathology associated with T2D more effectively than current treatments, are highly desirable. Th ...

human islets = tested on: human islets; set-up: method as in PMID 20823098; details: human islets isolated from a donor with T2D; cited from earlier work
GLP-1R [3] = target: T1, GLP-1R (Rattus norvegicus, UniProt P32301); assay: Glucose-stimulated intracellular cAMP production (GSICP), cAMP ELISA, INS-1E cells; format: cell-based; details: diabetic INS-1E; 1 and 2 h, in some instances; 10 μM; n = 3
T1 construct: Rat INS-1E cells were cultured in RPMI-1640 containing 11 mM glucose; endogenous in cells; host or cells: INS-1E rat pancreatic beta cell line (healthy, diabetic and recovered states)
T1 sequence (P32301 22-463): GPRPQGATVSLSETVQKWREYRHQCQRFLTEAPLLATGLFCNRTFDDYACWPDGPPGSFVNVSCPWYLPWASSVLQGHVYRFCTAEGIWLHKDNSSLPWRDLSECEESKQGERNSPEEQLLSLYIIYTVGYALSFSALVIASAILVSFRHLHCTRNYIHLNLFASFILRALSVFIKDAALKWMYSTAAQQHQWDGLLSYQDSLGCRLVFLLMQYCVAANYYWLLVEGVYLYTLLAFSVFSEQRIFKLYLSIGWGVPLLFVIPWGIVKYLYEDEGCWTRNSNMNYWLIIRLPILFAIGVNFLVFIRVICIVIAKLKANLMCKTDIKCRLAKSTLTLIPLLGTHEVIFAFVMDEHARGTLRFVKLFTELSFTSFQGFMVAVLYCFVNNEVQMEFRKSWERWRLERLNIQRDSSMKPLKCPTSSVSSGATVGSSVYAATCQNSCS
Protocol: The cells were maintained in sterile 10 cm^2 tissue culture Petri dishes (Greiner Bio-one, Stonehouse, UK) by changing the FSM every 3–4 days and sub-culturing when they reached 100% confluency. Diabetic and recovered INS-1E cells were generated using a previously described method with some changes [41]. To produce ‘diabetic’ INS-1E cells, when healthy INS-1E cells reached >80% confluency, they were maintained in FSM containing high glucose (40 mM) for 4 weeks by changing the medium with high glucose every 3–4 days. To produce ‘recovered’ cells, the healthy cells were cultured initially in FSM containing 40 mM glucose (diabetic condition) for 4 weeks and then in FSM containing 11 mM glucose for 4 weeks. […]
The intracellular cAMP contents of the INS-1E cells during the treatments was measured using a cAMP ELISA. […]
For the ELISA, an anti-rabbit antibody (Genscript, Oxford, UK) diluted to 10 μg/mL in 100 mM NaHCO3 buffer (pH 9.6) was used to coat the wells (50 μL per well) of a 96-well plate overnight at 4 °C. […] The reaction was stopped after 5 min with 50 μL of 2M sulfuric acid, then its optical density was read at 450 nm (OD450) using a plate reader. Using known cAMP standards, the cAMP contents of the samples were determined.

GLP-1R [4] = target: T1, GLP-1R; assay: Glucose-stimulated insulin secretion (GSIS), insulin ELISA, INS-1E cells; format: cell-based; details: 10 μM, 15 mM glucose, n = 3
Protocol: The cells were maintained in sterile 10 cm^2 tissue culture Petri dishes (Greiner Bio-one, Stonehouse, UK) by changing the FSM every 3–4 days and sub-culturing when they reached 100% confluency. Diabetic and recovered INS-1E cells were generated using a previously described method with some changes [41]. To produce ‘diabetic’ INS-1E cells, when healthy INS-1E cells reached >80% confluency, they were maintained in FSM containing high glucose (40 mM) for 4 weeks by changing the medium with high glucose every 3–4 days. To produce ‘recovered’ cells, the healthy cells were cultured initially in FSM containing 40 mM glucose (diabetic condition) for 4 weeks and then in FSM containing 11 mM glucose for 4 weeks. […] Unless otherwise specified, all incubations of the cells in the following assays were carried out in a humid incubator at 37 °C and 5% CO2, and all of the ELISAs were carried out at room temperature (RT).
For the ELISA, the wells of 96-well plate inserts were coated with 50 μL of 3 μg/mL captured antibody (Novus Biologicals, Abingdon, UK) diluted in PBS for 2 h at 37 °C and then washed four times with PBST. The antibody-coated wells were then blocked for 1 h with 150 μL of blocking buffer (5% fish gelatin made in PBST). Samples of 50 μL of samples were added to the capture antibody-coated wells in duplicate and incubated overnight at 4 °C. The wells were then washed five times with PBST and incubated with 50 μL of HRP-conjugated detection antibody (Abcam; diluted 1/10,000 in dilution buffer) for 2 h. The wells were washed again five times with PBST and incubated with 50 μL of Ultra TMB substrate (Thermo Fisher Scientific, Loughborough, UK) for 5 min. The reaction was stopped by adding an equal volume of 2M sulfuric acid, then its optical density was read at 450 nm (OD450) using a plate reader. Using known insulin standards (Abcam, Cambridge, UK), the insulin concentrations of samples were determined.

INS-1E cells [5] = assay: GSIS with cAMP-elevating chemicals, insulin ELISA; format: cell-based, Rat; details: IBMX (10 μM), forskolin (0.5 mM), 15 mM glucose, n = 3; for augmentation of GSIS versus allosteric agonists: up to 12 h, p > 0.05
Protocol: Figure 9 Assessing the time-dependent effects of GLP-1R agonists and cAMP-elevating chemicals (IBMX and forskolin) on GSIS and GSICP in healthy, diabetic, and recovered INS-1E cells. […] Samples were analyzed using insulin (a) and cAMP (b) ELISAs. Data expressed as mean ± SEM, n = 3. […] No symbol on the bars indicates non-significance (p > 0.05) in comparison to the no agonist control at that time point. […] The cells were maintained in sterile 10 cm^2 tissue culture Petri dishes (Greiner Bio-one, Stonehouse, UK) by changing the FSM every 3–4 days and sub-culturing when they reached 100% confluency. Diabetic and recovered INS-1E cells were generated using a previously described method with some changes. […] To produce ‘recovered’ cells, the healthy cells were cultured initially in FSM containing 40 mM glucose (diabetic condition) for 4 weeks and then in FSM containing 11 mM glucose for 4 weeks. For all the following assays, INS-1E cells (100,000 cells/well) were plated in a 96-well plate in FSM and incubated for 24 h in a humid incubator at 37 °C and 5% CO2 for the cells to attach and reach >80% confluency. Unless otherwise specified, all incubations of the cells in the following assays were carried out in a humid incubator at 37 °C and 5% CO2, and all of the ELISAs were carried out at room temperature (RT). The insulin secreted by INS-1E cells during the treatments was measured using an insulin ELISA. INS-1E cells (100,000 cells/well) were plated in a 96-well plate in FSM. […] The cells were then incubated in the KRH buffer containing the specified concentration of glucose without or with the specified concentration of GLP-1R agonist(s) for the desired time. After cessation of the cell treatments, the media were clarified via centrifugation at 22,000× g for 5 min and then diluted 1 in 25 in dilution buffer (0.5% fish gelatin made in PBST [PBS with 0.05% tween-20]) and used for the insulin ELISA. The sample preparation for measuring the intracellular insulin contents of the INS-1E cells via the insulin ELISA was as follows. After cessation of the treatments, the cells were lysed in 150 μL of 0.1 M HCl. The cell lysates were centrifuged at 22,000× g for 5 min, then the supernatant was diluted 1 in 1000 in dilution buffer to use as the samples for the insulin ELISA. For the ELISA, the wells of 96-well plate inserts were coated with 50 μL of 3 μg/mL captured antibody (Novus Biologicals, Abingdon, UK) diluted in PBS for 2 h at 37 °C and then washed four times with PBST. […] The reaction was stopped by adding an equal volume of 2M sulfuric acid, then its optical density was read at 450 nm (OD450) using a plate reader. Using known insulin standards (Abcam, Cambridge, UK), the insulin concentrations of samples were determined.

INS-1E cells [6] = assay: Intracellular cAMP (GSICP) with cAMP-elevating chemicals, cAMP ELISA; format: cell-based, Rat; details: IBMX (10 μM), forskolin (0.5 mM), 15 mM glucose, n = 3; for intracellular cAMP (GSICP) versus allosteric agonists: up to 12 h, p > 0.05
Protocol: Figure 9 Assessing the time-dependent effects of GLP-1R agonists and cAMP-elevating chemicals (IBMX and forskolin) on GSIS and GSICP in healthy, diabetic, and recovered INS-1E cells. […] Samples were analyzed using insulin (a) and cAMP (b) ELISAs. Data expressed as mean ± SEM, n = 3. […] No symbol on the bars indicates non-significance (p > 0.05) in comparison to the no agonist control at that time point. […] The cells were maintained in sterile 10 cm^2 tissue culture Petri dishes (Greiner Bio-one, Stonehouse, UK) by changing the FSM every 3–4 days and sub-culturing when they reached 100% confluency. Diabetic and recovered INS-1E cells were generated using a previously described method with some changes. […] To produce ‘recovered’ cells, the healthy cells were cultured initially in FSM containing 40 mM glucose (diabetic condition) for 4 weeks and then in FSM containing 11 mM glucose for 4 weeks. For all the following assays, INS-1E cells (100,000 cells/well) were plated in a 96-well plate in FSM and incubated for 24 h in a humid incubator at 37 °C and 5% CO2 for the cells to attach and reach >80% confluency. Unless otherwise specified, all incubations of the cells in the following assays were carried out in a humid incubator at 37 °C and 5% CO2, and all of the ELISAs were carried out at room temperature (RT). The intracellular cAMP contents of the INS-1E cells during the treatments was measured using a cAMP ELISA. INS-1E cells (100,000 cells/well) were plated in a 96-well plate in FSM. After 24 h, the cells were pre-incubated with KRH buffer containing 0.5% fish gelatin for 1 h, washed twice with KRH and then incubated for 1 h with KRH to reduce basal cAMP levels. The cells were incubated in the KRH buffer containing various concentrations of glucose without or with different concentrations of GLP-1R agonists for the desired time. The cells were then lysed in 150 μL of 0.1M HCl by incubating at RT for 20 min, and then the cell lysates were centrifuged at 16,000× g for 10 min. A total of 12 μL of the supernatant was neutralized with 6 μL of 0.2M NaOH, diluted to 120 μL with TBS containing 0.05% Tween-20 (TBST), and used in the cAMP ELISA. For the ELISA, an anti-rabbit antibody (Genscript, Oxford, UK) diluted to 10 μg/mL in 100 mM NaHCO3 buffer (pH 9.6) was used to coat the wells (50 μL per well) of a 96-well plate overnight at 4 °C. The coated wells were washed twice with TBST and blocked with blocking buffer (TBST containing 0.5% fatty acid-free BSA) for 1 h. Samples of 50 μL were then added individually in duplicate to the antibody-coated wells. […] The reaction was stopped after 5 min with 50 μL of 2M sulfuric acid, then its optical density was read at 450 nm (OD450) using a plate reader. Using known cAMP standards, the cAMP contents of the samples were determined.

GSIS at 48 h, 72 h and 96 h (GLP-1R [4]; diabetic INS-1E) | GSIS at 48 h, 72 h and 96 h (GLP-1R [4]; healthy and recovered INS-1E) | Molecule | time after which augmentation of GSIS was lost (INS-1E cells [5]) | augmentation of GSIS versus allosteric agonists (INS-1E cells [5]) | time after which augmentation of GSICP was lost (INS-1E cells [6]) | intracellular cAMP (GSICP) versus allosteric agonists (INS-1E cells [6]) | further results
 |  | GLP-1: hormone secreted into the circulation by intestinal L-cells in response to food intake |  |  |  |  | G-protein pathway activation via GLP-1R (GLP-1R [1]): activation of both the Gαs and Gαq pathways; half-life [2]: short half-life
significantly boosted GSIS | slightly increased GSIS | CC[S+]([O-])c1nc(-c2cccc(OCc3ccccc3)c2)cc(C(F)(F)F)n1 (centres unmarked) [Compound B, 4-(3-(benzyloxy)phenyl)-2-(ethylsulfinyl)-6-(trifluoromethyl)-pyramidine] |  |  |  |  | insulin secretion (human islets): near-normal levels; GSICP, 8 mM glucose preincubation (GLP-1R [3]): boosted GSCIP to a greater extent
 |  | CC(C)Cn1c(=O)n(C)c(=O)c2[nH]cnc21 [IBMX, Isobutylmethylxanthine] | 12 h | augmented GSIS to similar levels | 12 h | raised intracellular cAMP levels | 
 |  | CCCCCCCCCCCCCCCC(=O)N[C@@H](CCC(=O)NCCCC[C@H](NC(=O)[C@H](C)NC(=O)[C@H](C)NC(=O)[C@H](CCC(N)=O)NC(=O)CNC(=O)[C@H](CCC(=O)O)NC(=O)[C@H](CC(C)C)NC(=O)[C@H](Cc1ccc(O)cc1)NC(=O)[C@H](CO)NC(=O)[C@H](CO)NC(=O)[C@@H](NC(=O)[C@H](CC(=O)O)NC(=O)[C@H](CO)NC(=O)[C@@H](NC(=O)[C@H](Cc1ccccc1)NC(=O)[C@@H](NC(=O)CNC(=O)[C@H](CCC(=O)O)NC(=O)[C@H](C)NC(=O)[C@@H](N)Cc1cnc[nH]1)[C@@H](C)O)[C@@H](C)O)C(C)C)C(=O)N[C@@H](CCC(=O)O)C(=O)N[C@@H](Cc1ccccc1)C(=O)N[C@H](C(=O)N[C@@H](C)C(=O)N[C@@H](Cc1c[nH]c2ccccc12)C(=O)N[C@@H](CC(C)C)C(=O)N[C@H](C(=O)N[C@@H](CCCNC(=N)N)C(=O)NCC(=O)N[C@@H](CCCNC(=N)N)C(=O)NCC(=O)O)C(C)C)[C@@H](C)CC)C(=O)O [Liraglutide] |  |  |  |  | resistance to DPP-IV [2]: resistant to breakdown by DPP-IV
significantly boosted GSIS | slightly increased GSIS | CC(C)(C)Nc1nc2cc(Cl)c(Cl)cc2nc1S(C)(=O)=O [Compound 2, 6,7-dichloro-2-methylsulfonyl-3-N-tert-butylaminoquinoxaline] |  |  |  |  | 
 |  | C=C[C@@]1(C)CC(=O)[C@]2(O)[C@@]3(C)[C@@H](O)CCC(C)(C)[C@@H]3[C@H](O)[C@H](OC(C)=O)[C@@]2(C)O1 [forskolin] | 12 h | augmented GSIS to similar levels | 12 h | raised intracellular cAMP levels | 
